Values of other authors, collected in article PMC10339703 (Clinical and Translational Science, 2023).

How the values were obtained:
patients with IPF [1] = settings: most common side effects; cited from earlier work
patients with IPF [2] = settings: commonly reported adverse effects; cited from earlier work

Row | Compound | rash, incidence (patients with IPF [1]) [%] | diarrhea, incidence (patients with IPF [2]) [%] | elevation in liver function tests, incidence (patients with IPF [2]) [%]
1 | Cc1ccc(=O)n(-c2ccccc2)c1 [Pirfenidone] | 30 |  | 
2 | COC(=O)c1ccc2c(c1)NC(=O)/C2=C(\Nc1ccc(N(C)C(=O)CN2CCN(C)CC2)cc1)c1ccccc1 [Nintedanib] |  | 62 | 14
